Laboratory results reported in patent publication US11142504B2, “Substituted heterocycles as c-MYC targeting agents” (Northwestern University, priority 2016, dated 2021).

Columns and labels:
MYC/Max binding to DNA = MYC/Max binding to DNA (Homo sapiens, UniProt P01106); test: Electrophoretic mobility shift assay (EMSA)
Procedure: We also tested our best hit compound Min9 (NUCC-0176234) and newly synthesized analogs for effects of these compounds on MYC/Max binding to DNA in electrophoretic mobility shift assays (EMSAs). (See FIG. 5a and FIG. 5b). We expected the active compounds to impair MYC/Max binding to DNA. Several structural analogs of Min9 were tested over multiple doses for inhibiting MYC-DNA binding and we observed a dose-dependent inhibition. (See FIG. 5c).

MycCap cells [1] = test: Cell viability of MycCap cells; assay type: cell-based; settings: Mus musculus, Myc-CaP
PC12 cells = test: Cell viability of PC12 cells; assay type: cell-based; settings: for IC50: Rattus norvegicus, PC-12, Cell viability of PC12 cells
Procedure: (§1) PC3 prostate cancer cell line with high Myc level and PC12 pheochromocytoma tumor cell line with non functional Max protein, which is not dependent on Myc-Max complex, were phased from ATCC. Cells were plated in 96 well plate at 1000 cells per well, and Myc inhibitor 361 at various concentrations was added to the cells next day. After 3 days of treatment, fresh medium with 361 were added again, and cell viability was measured by MTS assay at day 5 after the treatment. (See FIG. 11).

MV411 cells = test: AML xenograft model, combination with Ara-C; assay type: in vivo, CB17 SCID mice; settings: AML mice xenograft
Procedure: CB17 SCID mice were inoculated with MV411 cells at the density of 5×10^6 suspended in PBS and matrigel (1:1). The mice were randomized based on tumor volume into 6 different groups after the tumor reached ˜200 to 500 mm^3. The mice were treated either with vehicle, NU031, NU975 alone or in combination with cytarabine (Ara-C). […] (See FIG. 17).

[2] = In vitro metabolism in mouse S9 fraction; assay type: in vitro ADME
Procedure: (§2) In vitro metabolism of NUCC-176242 and NUCC-176248 were tested using mouse liver microsomes and a mouse S9 fraction. (See FIG. 9).

[3] = Stability in mouse liver microsomes; assay type: in vitro ADME; settings: % remaining of compound after 60 min treatment with mouse liver microsomes
Procedure: as §2

[4] = test system: MYC transcriptional activity; test: MYC E-Box luciferase reporter assay; assay type: cell-based; settings: MycCap Ebox-luc, 4 hours of treatment
Procedure: To test the compounds, we evaluated the in silico hits in a MYC E-Box luciferase reporter assay to measure the effects of these compounds (referred to as Min-1 to Min-32) on MYC transcriptional activity. […] (See FIG. 2).
MycCap cells stably expressing luciferase with CMV promoter (MycCap-luc) or c-Myc E-box-luciferase reporter (MycCap Ebox-luc) were plated at 10000 cells per well in 96 well white-wall plate. Serial dilutions of 361 were treated next day. At 4 hours of treatment, luminescence signal was determined immediately after adding 150 μg/ml of Luciferin to the well. (See FIG. 12).

[5] = test system: PC3 prostate cancer cell line; test: Proliferation assay (MTS), PC3 cells; assay type: cell-based; settings: MTS at day 5
Procedure: as §1

MycCap cells [6] = test: MycCap FVB allograft model; assay type: in vivo, FVB mice
Procedure: FVB mice were inoculated with 1×10^6 of MycCap cells in 100 ul of matrigel subcutaneously on both flanks of the mice. When tumor size reached average size of 150 mm^3, mice were randomized based on tumor volume to 2 groups. Mice were administered with 50 mg/kg of 361 or vehicle (Veh) twice daily intra-peritoneally for two days. The treatment was suspended for 10 day, and initiated the treatment with a lower dose […] daily for another 9 days. Tumor size was measured twice a week during the experiment. (See FIG. 15).
MycCap FVB allograft model was treated with 361 (50 mg/kg) for two days, following by two days of anti-PD-1 antibody (100 ug/day), and kept this 4-day treatment cycle for 4 cycles. (See FIG. 16).

[7] = test system: MYC WT and KO fibroblasts; test: Growth inhibition of wild type and MYC knockout rat fibroblasts; assay type: cell-based
Text: We tested the top 13 active compounds in the first screen assay. […] More than half of the tested compounds show better growth inhibitory effect on MYC WT compared to MYC KO cells.

[8] = test system: cMYC wild-type (WT) and cMYC KO line; test: Cell viability assay, cMYC wild-type line vs cMYC KO line; assay type: cell-based
Procedure: Min9 (NUCC-0176234) was also tested in a cell viability assay against a cMYC wild-type (WT) and a cMYC KO line.

MYC/Max binding to DNA, sequence (P01106 whole entry, species assumed): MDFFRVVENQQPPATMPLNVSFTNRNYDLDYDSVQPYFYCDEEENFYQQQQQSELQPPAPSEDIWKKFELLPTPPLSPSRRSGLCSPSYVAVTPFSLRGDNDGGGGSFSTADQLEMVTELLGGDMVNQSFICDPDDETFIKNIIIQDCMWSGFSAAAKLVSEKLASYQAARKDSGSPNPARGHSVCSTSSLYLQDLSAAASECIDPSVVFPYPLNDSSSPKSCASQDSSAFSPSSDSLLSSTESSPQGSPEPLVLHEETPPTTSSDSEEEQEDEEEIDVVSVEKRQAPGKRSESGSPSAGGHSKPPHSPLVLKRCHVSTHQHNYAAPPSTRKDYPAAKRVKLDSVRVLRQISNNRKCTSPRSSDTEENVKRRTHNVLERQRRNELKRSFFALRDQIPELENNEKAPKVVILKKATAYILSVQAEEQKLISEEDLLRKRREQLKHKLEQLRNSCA

Row | IC50 (MYC/Max binding to DNA) [µM] | MLM % at 60 min [3] [%] | SMILES | IC50 (MycCap cells [1]) [µM] | IC50 (PC12 cells) [µM] | also measured
1 | 53.3 | – | Oc1cc(OCc2ccc(Cl)cc2)ccc1-c1n[nH]c(C(F)(F)F)c1-c1ccccc1 [NUCC-0198295] | 4.6 | – | –
2 | – | – | Cn1nc(C(F)(F)F)cc1-c1ccc(OCc2ccc(Cl)cc2)c(-c2ccc(Cl)c(C(F)(F)F)c2)c1O [NUCC-0200975] | 6.1 | 38.4 | anti-tumor effect in combination with Ara-C (MV411 cells; listed as 975): significant synergic anti-tumor effect with Ara-C
3 | – | – | CCc1ccc(Oc2c(-c3ccc(OCc4ccc(Cl)cc4)cc3O)n[nH]c2C(F)(F)F)cc1 [NUCC-0176242] | 3.1 | 9.8 | in vitro metabolism by mouse S9 fraction [2]: significantly metabolism by the mouse S9 fraction
4 | – | 75.8 | Oc1c(-c2cc(C(F)(F)F)[nH]n2)ccc(Oc2ccc(Cl)cc2)c1-c1cc(C(F)(F)F)cc(C(F)(F)F)c1 [NUCC-0201223] | 5.1 | 40.6 | –
5 | – | – | Cn1nc(C(F)(F)F)cc1-c1ccc(OCc2ccc(Cl)cc2)c(-c2cc(C(F)(F)F)cc(C(F)(F)F)c2)c1O [compound 361] | – | – | proliferation of Myc independent cell line PC12 (PC12 cells; MTS at day 5): not; c-Myc transcription activity [4]: inhibits c-Myc transcription activity as an early event before affecting cell viability; proliferation of Myc dependent cell line PC3 [5]: specifically inhibits proliferation; tumor progression, combination with immunotherapy (MycCap cells [6]; 361 50 mg/kg with anti-PD-1 antibody, 4-day cycles): significantly blocks tumor progression; tumor volume (MycCap cells [6]; mouse prostate cancer allograft, intra-peritoneally): reduces tumor volume
6 | – | – | CCc1ccc(Oc2c(-c3ccc(OCc4ccncc4)cc3O)n[nH]c2C(F)(F)F)cc1 [NUCC-0176250] | – | – | selectivity of growth inhibition, MYC WT vs MYC KO cells [7]: great selectivity
7 | – | 60.3 | CCOC(=O)c1cc(-c2ccc(OCc3ccc(Cl)cc3)c(-c3cc(C(F)(F)F)cc(C(F)(F)F)c3)c2O)n[nH]1 [NUCC-0200972] | 5.1 | 81 | –
8 | – | – | CCc1ccc(Oc2c(-c3ccc(OCc4ccc(Cl)cc4)cc3O)nn(C)c2C(F)(F)F)cc1 [NUCC-0176248] | 3.4 | 7.8 | selectivity of growth inhibition, MYC WT vs MYC KO cells [7]: high specificity
9 | – | – | CCc1ccc(Oc2c[nH]nc2-c2ccc(OCc3cnn(-c4ccccc4)c3)cc2O)cc1 [NUCC-0176234] | – | – | inhibition of MYC/Max binding to DNA (in words) (MYC/Max binding to DNA): prevent c-MYC/DNA binding; cell viability, WT line vs KO cells [8]: reduces cell viability much more in the WT line than the KO cells
10 | – | – | Cn1nc(C(F)(F)F)cc1-c1ccc(OCc2ccc(Cl)cc2)c(-c2ccc(Cl)c(C(F)(F)F)c2)c1O [NU975] | – | – | anti-tumor effect in combination with Ara-C (MV411 cells): significant difference compared to control group
11 | 63 | 72.9 | Cn1nc(C(F)(F)F)cc1-c1ccc(OCc2ccc(Cl)cc2)c(-c2cc(C(F)(F)F)cc(C(F)(F)F)c2)c1O [NUCC-0196361] | 3.8 | 30.7 | –
12 | – | 21.8 | Cn1nc(C(F)(F)F)cc1-c1ccc(OCc2ccc(Cl)cc2)cc1C=O [NUCC-0200976] | 3.9 | 63.3 | –
13 | – | 46.4 | CCc1c(OCc2ccc(Cl)cc2)ccc(-c2cc(C(F)(F)F)n[nH]2)c1O [NUCC-0200739] | 2.2 | 19.4 | –
14 | 102 | – | Oc1c(-c2cc(C(F)(F)F)[nH]n2)ccc(OCc2ccc(Cl)cc2)c1-c1cc(C(F)(F)F)cc(C(F)(F)F)c1 [NUCC-0196362] | 4 | – | –
15 | 64.4 | 87.4 | Oc1cc(OCc2ccc(Cl)cc2)ccc1-c1n[nH]c(C(F)(F)F)c1Oc1ccccc1Cl [NUCC-0196342] | 3.5 | – | –
16 | – | – | CCCCOc1ccc(-c2cc(C(F)(F)F)n[nH]2)c(O)c1-c1cc(C(F)(F)F)cc(C(F)(F)F)c1 [NU031] | – | – | anti-tumor effect in combination with Ara-C (MV411 cells): significant difference compared to control group
17 | 61.2 | 74 | COc1cccc(-c2c(-c3ccc(OCc4ccc(Cl)cc4)cc3O)n[nH]c2C(F)(F)F)c1 [NUCC-0198309] | 4 | – | –
18 | 61.8 | 88.6 | Oc1c(-c2cc(C(F)(F)F)[nH]n2)ccc(OCc2ccc(Cl)cc2)c1-c1ccccc1Cl [NUCC-0196363] | 4 | – | –
